Data on 28 molecules can be found in ChEMBL document CHEMBL5352506, “The Zinc-Binding Group Effect: Lessons from Non-Hydroxamic Acid Vorinostat Analogs” (J Med Chem, 2023).

Usually IC50 stands for the midpoint of a concentration-inhibition curve. By pKa is commonly meant the pH at which an ionisable group is half protonated.

SMILES strings stand for the structures.

The target in data set [1] is Histone deacetylase (HDAC1 and HDAC2) (Homo sapiens, UniProt Q13547+Q92769). Kind of data set: Inhibition of HDAC1/2 in human K562 nuclear extraction. In kind it is cell-free.
In data set [2] the target is Histone deacetylase. In kind it is cell-based, Homo sapiens. The note with it: hela.
Data set [3] deals with Histone deacetylase 4 (Homo sapiens, UniProt P56524). Description: Inhibition of human recombinant HDAC4.
Histone deacetylase 4, sequence (P56524 whole entry): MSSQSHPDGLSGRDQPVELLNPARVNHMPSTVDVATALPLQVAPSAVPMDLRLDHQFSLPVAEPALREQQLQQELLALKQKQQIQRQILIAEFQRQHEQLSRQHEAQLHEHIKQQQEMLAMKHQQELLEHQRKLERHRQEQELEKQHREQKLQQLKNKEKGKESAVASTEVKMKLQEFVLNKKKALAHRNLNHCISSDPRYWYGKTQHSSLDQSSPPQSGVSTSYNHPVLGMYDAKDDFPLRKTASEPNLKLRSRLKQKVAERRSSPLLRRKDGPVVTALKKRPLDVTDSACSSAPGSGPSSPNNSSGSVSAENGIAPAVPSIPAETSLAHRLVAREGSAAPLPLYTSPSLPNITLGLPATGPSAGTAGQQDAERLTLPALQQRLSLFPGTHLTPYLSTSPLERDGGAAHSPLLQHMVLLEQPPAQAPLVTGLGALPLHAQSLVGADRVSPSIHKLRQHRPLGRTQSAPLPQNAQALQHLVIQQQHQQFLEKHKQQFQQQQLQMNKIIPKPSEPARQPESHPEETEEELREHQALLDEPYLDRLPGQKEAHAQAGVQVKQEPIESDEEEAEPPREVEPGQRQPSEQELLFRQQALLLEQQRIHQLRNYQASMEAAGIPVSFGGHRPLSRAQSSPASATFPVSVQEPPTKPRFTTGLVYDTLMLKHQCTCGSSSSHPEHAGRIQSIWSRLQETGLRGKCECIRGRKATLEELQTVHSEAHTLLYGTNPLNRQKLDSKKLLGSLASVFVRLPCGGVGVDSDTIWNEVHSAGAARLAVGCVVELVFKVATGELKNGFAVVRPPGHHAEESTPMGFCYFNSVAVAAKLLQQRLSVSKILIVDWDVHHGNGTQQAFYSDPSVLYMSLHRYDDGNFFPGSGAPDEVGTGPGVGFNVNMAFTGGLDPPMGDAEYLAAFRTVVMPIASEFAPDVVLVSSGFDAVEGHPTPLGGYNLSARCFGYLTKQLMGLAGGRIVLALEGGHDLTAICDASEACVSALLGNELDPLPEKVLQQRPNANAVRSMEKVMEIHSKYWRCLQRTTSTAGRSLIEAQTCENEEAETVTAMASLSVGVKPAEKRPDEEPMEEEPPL
The target of data set [4] is T1, Histone deacetylase 7 (Homo sapiens, UniProt Q8WUI4).
T1 sequence (Q8WUI4 whole entry): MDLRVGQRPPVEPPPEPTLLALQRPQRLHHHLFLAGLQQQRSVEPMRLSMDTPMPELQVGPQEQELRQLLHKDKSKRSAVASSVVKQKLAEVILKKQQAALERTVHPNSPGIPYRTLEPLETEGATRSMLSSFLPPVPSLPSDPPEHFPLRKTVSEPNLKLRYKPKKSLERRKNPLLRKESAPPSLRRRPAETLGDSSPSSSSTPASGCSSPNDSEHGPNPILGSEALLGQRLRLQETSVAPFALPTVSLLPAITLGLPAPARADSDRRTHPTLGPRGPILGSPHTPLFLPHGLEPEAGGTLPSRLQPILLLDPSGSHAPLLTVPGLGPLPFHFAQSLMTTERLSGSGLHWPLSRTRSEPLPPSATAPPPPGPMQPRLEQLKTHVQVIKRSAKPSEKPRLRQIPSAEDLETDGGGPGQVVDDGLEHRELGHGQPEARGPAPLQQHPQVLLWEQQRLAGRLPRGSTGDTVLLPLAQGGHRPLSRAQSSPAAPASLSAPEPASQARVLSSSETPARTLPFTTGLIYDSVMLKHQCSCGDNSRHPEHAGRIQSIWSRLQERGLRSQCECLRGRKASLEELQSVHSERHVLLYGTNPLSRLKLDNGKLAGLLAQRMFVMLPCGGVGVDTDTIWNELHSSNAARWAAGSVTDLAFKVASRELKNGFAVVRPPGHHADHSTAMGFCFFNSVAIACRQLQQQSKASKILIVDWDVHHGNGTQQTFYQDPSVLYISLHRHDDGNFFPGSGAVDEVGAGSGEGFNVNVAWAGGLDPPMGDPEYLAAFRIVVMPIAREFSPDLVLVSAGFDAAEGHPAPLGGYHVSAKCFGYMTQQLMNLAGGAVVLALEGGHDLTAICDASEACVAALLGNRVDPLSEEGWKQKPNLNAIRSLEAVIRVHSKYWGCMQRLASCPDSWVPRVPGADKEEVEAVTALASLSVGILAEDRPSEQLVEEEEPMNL
Description: Inhibition of human recombinant HDAC7.

Data set [5] concerns the target T2, Protein deacetylase HDAC6 (Homo sapiens, UniProt Q9UBN7).
T2 sequence (Q9UBN7 whole entry): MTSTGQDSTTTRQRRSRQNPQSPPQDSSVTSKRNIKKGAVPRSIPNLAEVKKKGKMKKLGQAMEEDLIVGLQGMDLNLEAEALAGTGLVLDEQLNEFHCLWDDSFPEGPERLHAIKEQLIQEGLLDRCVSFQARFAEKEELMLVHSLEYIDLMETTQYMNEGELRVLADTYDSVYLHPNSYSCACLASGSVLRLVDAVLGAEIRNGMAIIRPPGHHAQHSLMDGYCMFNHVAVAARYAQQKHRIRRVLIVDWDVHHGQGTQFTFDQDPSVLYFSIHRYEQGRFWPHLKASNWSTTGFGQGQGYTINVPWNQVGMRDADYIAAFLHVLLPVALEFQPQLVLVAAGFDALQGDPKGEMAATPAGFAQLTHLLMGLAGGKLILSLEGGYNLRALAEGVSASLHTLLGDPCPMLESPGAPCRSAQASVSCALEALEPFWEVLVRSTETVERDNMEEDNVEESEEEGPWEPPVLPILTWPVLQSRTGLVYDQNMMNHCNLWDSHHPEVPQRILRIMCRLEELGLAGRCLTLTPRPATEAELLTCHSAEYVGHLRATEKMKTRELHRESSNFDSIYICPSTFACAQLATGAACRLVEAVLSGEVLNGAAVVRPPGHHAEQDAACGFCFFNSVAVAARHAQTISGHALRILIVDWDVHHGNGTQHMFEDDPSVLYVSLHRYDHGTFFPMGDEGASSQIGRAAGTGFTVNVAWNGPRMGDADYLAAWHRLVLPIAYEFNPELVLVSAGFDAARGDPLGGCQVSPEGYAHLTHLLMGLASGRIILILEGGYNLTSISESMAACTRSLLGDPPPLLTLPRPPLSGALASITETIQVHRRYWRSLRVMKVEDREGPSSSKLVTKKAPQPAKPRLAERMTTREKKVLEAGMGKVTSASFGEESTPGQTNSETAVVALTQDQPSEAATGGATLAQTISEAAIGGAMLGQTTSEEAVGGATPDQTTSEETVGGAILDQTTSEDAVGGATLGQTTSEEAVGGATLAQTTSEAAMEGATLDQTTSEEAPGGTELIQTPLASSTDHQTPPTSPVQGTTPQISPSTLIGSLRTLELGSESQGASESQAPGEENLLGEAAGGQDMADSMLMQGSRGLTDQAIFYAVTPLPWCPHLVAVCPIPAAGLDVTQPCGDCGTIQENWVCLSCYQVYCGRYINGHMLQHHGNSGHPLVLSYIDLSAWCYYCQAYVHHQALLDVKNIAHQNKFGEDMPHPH
Kind of data set: Inhibition of human recombinant HDAC6.

Data set [6] has as its target Histone deacetylase 3 (Homo sapiens, UniProt O15379). Kind of data set: Inhibition of human recombinant HDAC3.
For data set [7], the target named is Histone deacetylase 5 (Homo sapiens, UniProt Q9UQL6). Description: Inhibition of human recombinant HDAC5.
Histone deacetylase 5, sequence (Q9UQL6 whole entry): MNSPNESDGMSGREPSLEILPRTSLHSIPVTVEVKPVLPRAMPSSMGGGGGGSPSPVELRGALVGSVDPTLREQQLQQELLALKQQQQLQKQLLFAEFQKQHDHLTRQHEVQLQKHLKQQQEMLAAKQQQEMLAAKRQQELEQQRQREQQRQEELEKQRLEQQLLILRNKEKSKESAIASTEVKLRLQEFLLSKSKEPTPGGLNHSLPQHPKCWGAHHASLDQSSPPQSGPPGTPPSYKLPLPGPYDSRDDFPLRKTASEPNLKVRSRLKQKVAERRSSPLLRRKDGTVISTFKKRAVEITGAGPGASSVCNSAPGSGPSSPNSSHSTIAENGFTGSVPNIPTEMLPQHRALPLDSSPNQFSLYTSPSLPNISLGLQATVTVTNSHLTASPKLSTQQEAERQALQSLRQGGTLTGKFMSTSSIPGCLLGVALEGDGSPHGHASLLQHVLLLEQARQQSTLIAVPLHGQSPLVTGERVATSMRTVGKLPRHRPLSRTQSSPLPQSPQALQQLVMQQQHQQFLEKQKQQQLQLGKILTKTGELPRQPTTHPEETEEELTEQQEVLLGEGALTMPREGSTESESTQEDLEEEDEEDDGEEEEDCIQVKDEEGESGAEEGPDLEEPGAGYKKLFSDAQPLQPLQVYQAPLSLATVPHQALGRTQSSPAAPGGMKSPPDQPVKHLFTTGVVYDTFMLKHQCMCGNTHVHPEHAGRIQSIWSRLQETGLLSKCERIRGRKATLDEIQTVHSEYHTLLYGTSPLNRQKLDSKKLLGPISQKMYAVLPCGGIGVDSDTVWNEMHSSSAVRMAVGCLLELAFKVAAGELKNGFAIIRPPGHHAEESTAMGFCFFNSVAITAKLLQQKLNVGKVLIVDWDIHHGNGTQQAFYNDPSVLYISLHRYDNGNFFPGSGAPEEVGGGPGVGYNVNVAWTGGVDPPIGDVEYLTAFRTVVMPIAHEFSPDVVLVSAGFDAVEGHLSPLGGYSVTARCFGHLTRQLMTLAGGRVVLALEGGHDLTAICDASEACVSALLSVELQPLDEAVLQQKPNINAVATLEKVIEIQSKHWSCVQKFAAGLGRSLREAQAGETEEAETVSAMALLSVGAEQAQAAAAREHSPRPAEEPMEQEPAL
Data set [8] addresses T3, Histone deacetylase 11 (Homo sapiens, UniProt Q96DB2).
T3 sequence (Q96DB2 whole entry): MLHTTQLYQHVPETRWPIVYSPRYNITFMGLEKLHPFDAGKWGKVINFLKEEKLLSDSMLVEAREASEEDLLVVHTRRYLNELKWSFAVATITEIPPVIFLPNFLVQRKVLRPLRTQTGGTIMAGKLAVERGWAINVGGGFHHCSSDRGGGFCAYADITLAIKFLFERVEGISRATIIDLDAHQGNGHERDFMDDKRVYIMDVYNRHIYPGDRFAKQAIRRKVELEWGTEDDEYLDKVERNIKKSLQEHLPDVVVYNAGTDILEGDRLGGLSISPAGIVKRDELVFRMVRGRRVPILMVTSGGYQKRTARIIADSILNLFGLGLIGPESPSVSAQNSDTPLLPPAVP
Description: Inhibition of human recombinant HDAC11.

For data set [9], the target named is Histone deacetylase 2 (Homo sapiens, UniProt Q92769).
Histone deacetylase 2, sequence (Q92769 whole entry): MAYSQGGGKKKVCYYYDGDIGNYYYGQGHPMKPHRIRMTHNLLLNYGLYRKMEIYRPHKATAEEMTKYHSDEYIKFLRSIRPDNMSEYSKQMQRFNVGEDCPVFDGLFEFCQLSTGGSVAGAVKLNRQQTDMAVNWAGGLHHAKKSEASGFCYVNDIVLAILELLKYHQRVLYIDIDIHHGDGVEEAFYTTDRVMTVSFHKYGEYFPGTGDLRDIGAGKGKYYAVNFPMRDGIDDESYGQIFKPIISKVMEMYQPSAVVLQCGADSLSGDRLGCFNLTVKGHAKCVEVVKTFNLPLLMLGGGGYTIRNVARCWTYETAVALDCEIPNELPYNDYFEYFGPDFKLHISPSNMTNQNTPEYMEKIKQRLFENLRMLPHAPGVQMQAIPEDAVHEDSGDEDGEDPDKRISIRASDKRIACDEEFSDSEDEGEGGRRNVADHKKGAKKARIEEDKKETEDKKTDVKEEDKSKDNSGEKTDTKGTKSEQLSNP
Data set [10] deals with T4, Polyamine deacetylase HDAC10 (Homo sapiens, UniProt Q969S8).
T4 sequence (Q969S8 whole entry): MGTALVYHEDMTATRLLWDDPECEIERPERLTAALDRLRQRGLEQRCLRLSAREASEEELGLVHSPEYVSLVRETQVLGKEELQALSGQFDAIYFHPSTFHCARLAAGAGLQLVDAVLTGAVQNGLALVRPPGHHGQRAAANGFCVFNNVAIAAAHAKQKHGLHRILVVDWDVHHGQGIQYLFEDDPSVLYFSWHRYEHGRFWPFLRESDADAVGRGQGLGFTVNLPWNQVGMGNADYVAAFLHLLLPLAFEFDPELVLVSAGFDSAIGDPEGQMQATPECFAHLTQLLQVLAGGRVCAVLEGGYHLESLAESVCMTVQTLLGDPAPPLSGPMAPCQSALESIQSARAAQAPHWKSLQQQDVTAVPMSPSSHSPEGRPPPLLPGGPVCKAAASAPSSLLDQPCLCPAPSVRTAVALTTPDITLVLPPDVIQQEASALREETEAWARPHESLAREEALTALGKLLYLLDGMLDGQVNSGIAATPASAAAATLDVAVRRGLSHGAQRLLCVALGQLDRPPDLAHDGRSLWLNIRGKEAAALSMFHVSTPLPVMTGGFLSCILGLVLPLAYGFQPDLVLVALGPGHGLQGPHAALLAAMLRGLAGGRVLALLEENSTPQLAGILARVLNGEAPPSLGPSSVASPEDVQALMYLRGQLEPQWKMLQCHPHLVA
Kind of data set: Inhibition of human recombinant HDAC10.

Data set [11] concerns the target T5, Histone deacetylase 8 (Homo sapiens, UniProt Q9BY41).
T5 sequence (Q9BY41 whole entry): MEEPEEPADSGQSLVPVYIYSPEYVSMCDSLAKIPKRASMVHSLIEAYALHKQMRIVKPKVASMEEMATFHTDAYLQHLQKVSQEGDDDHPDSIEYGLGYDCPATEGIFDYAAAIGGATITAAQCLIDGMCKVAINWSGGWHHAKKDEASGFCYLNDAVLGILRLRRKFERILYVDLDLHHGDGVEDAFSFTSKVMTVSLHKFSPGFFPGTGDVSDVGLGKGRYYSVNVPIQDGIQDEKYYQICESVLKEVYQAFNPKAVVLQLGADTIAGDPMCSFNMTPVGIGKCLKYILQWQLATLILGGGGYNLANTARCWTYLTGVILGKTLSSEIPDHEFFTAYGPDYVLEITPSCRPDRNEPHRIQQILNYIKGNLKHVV
Kind of data set: Inhibition of human recombinant HDAC8.

Data set [12] has as its target Histone deacetylase. Kind of data set: Inhibition of HDAC (unknown origin). Format: protein assay, Homo sapiens.
Data set [13] concerns HBL-100. Description: Cytotoxicity against human HBL-100 cells assessed as cell growth inhibition. In kind it is toxicity, cell-based.
For data set [14], the system named is HRT-18 cell line. Kind of data set: Antiproliferative activity against human HRT-18 cell line assessed as cell growth inhibition measured after 72 hrs by MTT assay. Format: functional, cell-based. The conditions noted are these: HRT-18, 72 h. (Formazan colour is commonly taken as a measure of viable cells.)
The nature of data set [15]: Antiproliferative activity against human HC-04 cells assessed as cell growth inhibition measured after 72 hrs by MTT assay. Format: functional, cell-based. The note with it: HC04, 72 h.
The target in data set [16] is Histone deacetylase 1 (Homo sapiens, UniProt Q13547). Description: Inhibition of human recombinant HDAC1.
Histone deacetylase 1, sequence (Q13547 whole entry): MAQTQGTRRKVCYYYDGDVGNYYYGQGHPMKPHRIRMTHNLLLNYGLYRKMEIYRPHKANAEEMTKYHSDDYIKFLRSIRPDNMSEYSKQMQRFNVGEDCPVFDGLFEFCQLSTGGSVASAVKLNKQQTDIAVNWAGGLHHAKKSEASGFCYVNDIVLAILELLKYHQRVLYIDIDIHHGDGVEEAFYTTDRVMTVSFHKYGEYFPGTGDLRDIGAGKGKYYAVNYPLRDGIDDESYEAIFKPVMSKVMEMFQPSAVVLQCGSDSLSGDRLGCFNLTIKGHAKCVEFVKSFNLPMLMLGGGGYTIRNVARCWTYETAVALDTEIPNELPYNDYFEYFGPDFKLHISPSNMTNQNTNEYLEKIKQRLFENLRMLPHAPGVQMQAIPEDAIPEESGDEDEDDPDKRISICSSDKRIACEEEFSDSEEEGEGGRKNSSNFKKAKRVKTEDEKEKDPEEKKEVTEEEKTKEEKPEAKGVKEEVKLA
A short description of data set [17]: Dissociation constant, pKa of the compound. In kind it is physicochemical.

Histone deacetylase 3, sequence (O15379 whole entry): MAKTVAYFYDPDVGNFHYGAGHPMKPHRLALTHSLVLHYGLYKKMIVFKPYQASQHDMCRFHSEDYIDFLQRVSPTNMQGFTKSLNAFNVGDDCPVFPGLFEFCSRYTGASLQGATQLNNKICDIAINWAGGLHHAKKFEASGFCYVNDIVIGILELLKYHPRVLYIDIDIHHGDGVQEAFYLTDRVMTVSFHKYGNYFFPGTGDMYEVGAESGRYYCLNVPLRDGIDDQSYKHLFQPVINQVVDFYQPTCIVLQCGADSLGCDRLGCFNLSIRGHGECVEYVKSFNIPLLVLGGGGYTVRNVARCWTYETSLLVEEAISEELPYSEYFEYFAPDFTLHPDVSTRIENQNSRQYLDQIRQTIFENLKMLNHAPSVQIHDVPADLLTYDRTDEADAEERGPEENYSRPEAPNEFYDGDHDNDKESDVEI

Consider `CNC(=O)C(=O)CCCCCCOc1ccc(-c2ccccc2)cc1`, for which, in [1], the IC50 turned out to be 0.11 µM.
Regarding `O=C(O)CNC(=O)C(=O)CCCCCCOc1ccc(-c2ccccc2)cc1`, the 50% inhibitory concentration (IC50) in [1] was more than 50 µM.
The molecule `NC(=O)C(=O)CCCCCCOc1ccc(-c2ccccc2)cc1` came in with a concentration for half-maximal inhibition (IC50) in [1] of more than 50 µM.
On the same count and under the same terms, under `CN(C)C(=O)C(=O)CCCCCCOc1ccc(-c2ccccc2)cc1` stands more than 5 µM.
In [2], `O=C(CCCCCCNCCS)Nc1ccccc1` returned an IC50 of more than 100 µM.
As for `COc1cccc(NC(=O)CCCCCC(=O)Nc2ccccc2)c1`, the IC50 in data set [2] was more than 1000 µM.
Same read-out and setting: under `O=C(CO)NCCCCCC(=O)Nc1ccccc1` stands more than 100 µM.
With `CN(C)CCNC(=O)C(=O)CCCCCCOc1ccc(-c2ccccc2)cc1`, the IC50 in data set [1] was more than 50 µM.
`CCNC(=O)C(=O)CCCCCCOc1ccc(-c2ccccc2)cc1`: the half-inhibitory concentration (IC50) in [1] was found to be 4.9 µM.
With `NCC(=O)NCCCCCC(=O)Nc1ccccc1`, the IC50 in data set [2] is more than 100 µM.
`C[Si](O)(O)CCCCCCC(=O)Nc1ccccc1`: the IC50 is more than 100 µM in data set [3]; more than 100 µM in [4]; 18 µM in [5]; 0.6 µM in [6]; more than 100 µM in [7]; 57 µM in data set [8]. Moreover, the IC50 worked out at 6 µM in [9], 5 µM in [10] and 27 µM in [11].
For `C[C@@H](O)C(=O)CCCCCCC(=O)Nc1ccccc1`, the IC50 is more than 300 µM in data set [5], more than 33 µM in data set [12] and 8.9 µM in data set [2].
In the case of `C[C@H](O)C(=O)CCCCCCC(=O)Nc1ccccc1`, the IC50 was more than 300 µM in [5] and 77.1 µM in data set [2].
In the case of `NC(=S)NC(=O)CCCCCC(=O)Nc1ccccc1`, the “inhibition (INH)” value in data set [13] is less than 12%. The IC50 in data set [14] and in data set [15] was 24.1 µM in each case.
With `C[S+]([O-])CCCCCCC(=O)Nc1ccccc1` (stereo not given), the IC50 in data set [2] was found to be 48 µM.
`O=C(CCCCCCOP(=O)([O-])[O-])Nc1ccccc1.[K+].[K+]` registered an IC50 in data set [2] of 3900 µM.
Regarding `NC(=S)NC(=O)CCCCC(=O)Nc1ccccc1`, the “inhibition (INH)” value in data set [13] is reported as less than 12%. In addition, the IC50 in [14] and in [15] was 30.4 µM in each case.
In the case of `O=C(CCCCNP(=O)([O-])[O-])Nc1ccccc1.[K+].[K+]`, in [2], the half-maximal inhibitory concentration (IC50) is 360 µM.
Regarding `CCN(CC)C(=S)SSCCCCCC(=O)Nc1ccccc1`, the IC50 in data set [5] is 0.068 µM; in [16] it was 0.046 µM; in [2] it was 0.7 µM; in data set [9], 0.18 µM; in [10], 0.14 µM.
Turning to `O=C(c1ccc(C(=O)C(F)(F)C(F)(F)F)s1)N1CCc2ccccc21`, the IC50 came to 2.9 µM in [6] and 4.2 µM in [16].
On to `CCC(=O)CCCCCCC(=O)Nc1ccccc1`, for which the IC50 is more than 300 µM in [5] and more than 100 µM in data set [2].
Molecule `O=C(CCCCCOP(=O)([O-])[O-])Nc1ccccc1.[K+].[K+]` gave an IC50 in [2] of 60 µM.
In data set [2], `O=C(CCCCOP(=O)([O-])[O-])Nc1ccccc1.[K+].[K+]` had an IC50 of 2200 µM.
Molecule `O=C(CCCCCNP(=O)([O-])[O-])Nc1ccccc1.[K+].[K+]` returned an IC50 in data set [2] of 70 µM.
`O=C(CCCCCOP([O-])([O-])=S)Nc1ccccc1.[K+].[K+]` displayed an IC50 in data set [2] of 50 µM.
In [2], `O=C(CCCCCCNP(=O)([O-])[O-])Nc1ccccc1.[K+].[K+]` gave an IC50 of 490 µM.
Consider `CC(=O)O[C@H](C)C(=O)CCCCCCC(=O)Nc1ccccc1`, for which the IC50 in data set [5] was more than 300 µM; in data set [2] it was 63.8 µM.
In the case of `O=C(CCCCCCC(=O)Nc1ccccc1)NO` [VORINOSTAT], the pKa in [17] is 9.4.
